# Data taken from patent US8148398B2, “Intermediate duration neuromuscular blocking agents and antagonists thereof” (Cornell Research Foundation, Inc., priority 2006, dated 2012).
# Experiments:
# Type in all cases: in vivo
# [1] = system: adult male rhesus monkeys; assay: Reversal of AV002 0.15 mg/kg block by cysteine/glutathione or neostigmine/atropine (Example 5); details: AV002 0.15 mg/kg (3XED95), spontaneous recovery
# Procedure: Anesthesia was induced in adult male rhesus monkeys using 7.5 mg/kg ketamine. Tracheae were intubated using topical anesthetic. Anesthesia was maintained with isoflurane 1-2% and N2O/O2 (60%/40%). ECG, temperature, O2 saturation, and blood pressure were monitored and maintained within normal limits. Mechanomyogram (MMG) recordings were made of twitch responses from the extensor digitorum at 0.15 Hz. A control dose of AV002 (0.15 mg/kg; about 3 times the ED95) was given and animals were allowed to recover spontaneously. Another dose of 0.15 mg/kg of AV002 was given approximately 30 minutes after return of train of four (TOF) to greater than 100%. Reversal of the second dose of AV002 was attempted in four separate groups of animals with either:
# 1) cysteine 30 mg/kg and glutathione 30 mg/kg at 1 minute after injection of AV002,
# 2) cysteine 30 mg/kg and glutathione 30 mg/kg at the first sign of recovery of twitch,
# 3) neostigmine 0.05 mg/kg and atropine 0.03 mg/kg at 1 minute after injection of AV002, or
# 4) neostigmine 0.05 mg/kg and atropine 0.03 mg/kg at the first sign of recovery of twitch.
# Comparative recovery intervals and total duration were analyzed using the student t-test.
# Rhesus monkeys [2] = assay: Cardiovascular effects (mean arterial pressure, heart rate) of blocking agents in rhesus monkeys; details: for change in heart rate / change in mean arterial pressure: even high dosages, FIG. 8 / FIG. 9; for physiological distress to the circulation in vivo: rhesus monkeys
# Procedure: (§1) Rhesus monkeys were anesthetized with ketamine (7.5 mg/Kg) given intramuscularly or intravenously. Anesthesia was maintained with a mixture of isoflurane (1.5%), nitrous oxide (60%) and oxygen (40%). The common peroneal nerve was stimulated supramaximally with square wave pulses of 0.2 m sec duration at a rate of 0.15 Hz. Twitch contractions were recorded via the tendon of the extensor digitorum muscle.
# (§2) In all animals, the trachea was intubated and ventilation was controlled at 12-15 ml/kg, 18-24 breaths per minute. A peripheral vein and artery were cannulated for drug administration and for recording of arterial pressure, respectively. In preliminary studies a neuromuscular blocking agent having one of the following structures was administered intravenously.
# Rhesus monkeys were anesthetized and treated with a neuromuscular blocking agent as described in Example 1. FIGS. 8 and 9 provide mean values for the cardiovascular effects of administration of the AV002 and AV001 neuromuscular blocking agents, respectively as a function of dosage.
# Rhesus monkeys [3] = assay: Potency and duration of neuromuscular blockade, twitch response in anesthetized rhesus monkeys; details: for spontaneous recovery from neuromuscular blockade / duration of the neuromuscular blockade (FIG. 7): no antagonist; for effective dosage for 50% neuromuscular blockade (dose-response curve) / effective dosage for 95% neuromuscular blockade (dose-response curve): dose-response curve FIG. 3 / FIG. 10; for Potency (ED95 mg/kg) / Duration at 4X ED95 / Duration: rhesus monkeys; for Potency (ED95 mg/kg): intravenous, dose achieving 95% neuromuscular blockade; for Duration at 4X ED95: 4xED95 dosage; for Duration: from injection to 95% twitch recovery
# Procedure: as §1, §2
# Rhesus monkeys [4] = assay: Reversal of neuromuscular blockade by cysteine plus glutathione in rhesus monkeys (Example 3); details: for time for reversal of the neuromuscular blockade (FIG. 5, as stated in Example 3): combination of cysteine and glutathione
# Procedure: as §1, §2
# In studies designed to examine the reversal of the neuromuscular blockade caused by these agents, cysteine and/or glutathione was administered to test animals at selected dosages.
# Rhesus monkeys were anesthetized and treated with a neuromuscular blocking agent as described in Example 1.
# neuromuscular blockade = assay: Reversibility of neuromuscular blockade by cysteine-like antagonists (general statements); details: general statement, no method given
# [5] = 0.1 mg/kg blocking agent, FIG. 1 / FIG. 4
Compound,change in heart rate (Rhesus monkeys [2]),change in mean arterial pressure (Rhesus monkeys [2]),physiological distress to the circulation in vivo (Rhesus monkeys [2]),spontaneous recovery from neuromuscular blockade (Rhesus monkeys [3]; [5]),effective dosage for 50% neuromuscular blockade (dose-response curve) (Rhesus monkeys [3]) [mg/kg],effective dosage for 95% neuromuscular blockade (dose-response curve) (Rhesus monkeys [3]) [mg/kg],Potency (ED95 mg/kg) (Rhesus monkeys [3]) [mg/kg],Duration at 4X ED95 (Rhesus monkeys [3]) [min],Duration (Rhesus monkeys [3]) [min],"reversal of the blockade by cysteine-like molecules (cysteine, glutathione) (neuromuscular blockade)",also measured
COc1ccc(C[C@@H]2c3cc(OC)c(OC)cc3CC[N@@+]2(C)CCCOC(=O)/C=C/C(=O)OCCC[N@+]2(C)CCc3cc(OC)c(OC)cc3[C@H]2Cc2ccc(OC)c(OC)c2)cc1OC [AV002],little or no change,little or no change,no signs of causing physiological distress to the circulation,about 1600 seconds,0.031,0.045,0.04,30 to 35,20 to 25,–,"Recovery Interval (5-95%) (minutes ± SE) [1]: 13.78 ± 1.27 min; Total Duration (inj − 95%) (minutes ± SE) [1]: 30.45 ± 2.24 min; duration of the neuromuscular blockade (FIG. 7) (Rhesus monkeys [3]; 0.1 mg/kg): about 1766 seconds; spontaneous recovery from neuromuscular blockade (Rhesus monkeys [3]; 0.2 mg/kg blocking agent, FIG. 6): about 1730 seconds; spontaneous recovery from neuromuscular blockade (Rhesus monkeys [3]; 0.2 mg/kg blocking agent, seconds value restated in minutes): about 28.8 min.; duration of the neuromuscular blockade (FIG. 7) (Rhesus monkeys [3]; 0.2 mg/kg): about 2150 seconds; potency of trans isomer (AV002) compared with cis isomer (AV003) (Rhesus monkeys [3]; comparison of ED95 values): five times more potent; time for reversal of the neuromuscular blockade (FIG. 5, as stated in Example 3) (Rhesus monkeys [4]; 0.1 mg/kg): about 320 seconds; recovery from neuromuscular blockade with cysteine plus glutathione (Rhesus monkeys [4]; 0.2 mg/kg blocking agent, antagonists at 2 minutes, seconds value restated in minutes): about 7.5 min.; time for reversal of the neuromuscular blockade (FIG. 5, as stated in Example 3) (Rhesus monkeys [4]; 0.2 mg/kg): about 670 seconds"
COc1cc2c(cc1OC)[C@@H](Cc1cc(OC)c(OC)c(OC)c1)[N@+](C)(CCCOC(=O)/C=C/C(=O)OCCC[N@+]1(C)CCc3cc(OC)c(OC)cc3[C@H]1Cc1cc(OC)c(OC)c(OC)c1)CC2 [AV001],little or no change,little or no change,no signs of causing physiological distress to the circulation,about 2800 seconds,0.027,0.040,0.04,50 to 60,30 to 40,–,"time to reversal of neuromuscular blockade counted from blocking agent administration (Rhesus monkeys [4]; 0.1 mg/kg, 20 mg/kg cysteine + 10 mg/kg glutathione after two minutes): about 475 seconds; recovery from neuromuscular blockade with cysteine plus glutathione, overdose (Rhesus monkeys [4]; 3.0 mg/kg blocking agent, seconds value restated in minutes): about 8.5 min."
COc1cc(CC2c3c(cc(OC)c(OC)c3OC)CC[N+]2(C)CCCOC(=O)CCC(=O)OCCC[N+]2(C)CCc3cc(OC)c(OC)c(OC)c3C2Cc2cc(OC)c(OC)c(OC)c2)cc(OC)c1OC (stereo not drawn) [doxacurium],–,–,–,–,–,–,–,–,–,no reversal effect whatsoever,–
COc1ccc(C[C@@H]2c3cc(OC)c(OC)cc3CC[N@+]2(C)CCC(=O)OCCCCCOC(=O)CC[N@@+]2(C)CCc3cc(OC)c(OC)cc3[C@H]2Cc2ccc(OC)c(OC)c2)cc1OC [cisatracurium],–,–,–,–,–,–,–,–,–,no reversal effect whatsoever,–
COc1ccc(C[C@H]2c3cc(OC)c(OC)cc3CC[N@@+]2(C)CCCOC(=O)/C=C/C(=O)OCCC[N@+]2(C)CCc3cc(OC)c(OC)cc3[C@@H]2Cc2ccc(OC)c(OC)c2)cc1OC [AV003],–,–,–,–,–,–,0.20,45 to 60,25 to 40,–,–
COc1cc2c(cc1OC)[C@@H](Cc1cc(OC)c(OC)c(OC)c1)[N+](C)(CCCOC(=O)CC/C=C/CCC(=O)OCCC[N+]1(C)CCc3cc(OC)c(OC)cc3[C@H]1Cc1cc(OC)c(OC)c(OC)c1)CC2 (stereo partly drawn) [mivacurium],–,–,–,–,–,–,–,–,–,no reversal effect whatsoever,–
